# Experimental data published in patent US20240025906A1 (NEURON23, INC., priority 2022, published 2024).
# Experiments:
# TYK2 JH2 = target: T1, TYK2 JH2 (Homo sapiens, UniProt P29597); experiment: TYK2 JH2 binding assay (KINOMEscan KdELECT competitive binding); conditions: TYK2 JH2 domain, KINOMEscan KdELECT (Assay A); read-out: Biochemical TYK2_DiscoverX_JH2_BND_Kd
# T1 construct: purchased DiscoverX (KINOMEscan KdELECT service); host or cells: E. coli BL21-derived (T7 phage display) or HEK-293
# Method in brief: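 JH2-domain fragment, expressed as T7 phage tag in BL21-derived E. coli or DNA-tagged from HEK-293, competed with test compound against bead-immobilized biotinylated ligand in binding buffer (0.9% DMSO). 1 h shaking at room temperature; bound kinase eluted with 0.5 μM free ligand and quantified by qPCR. Kd from 11-point 3-fold dilutions.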
# [1] = test system: JAK1/TYK2 pSTAT5 (Tyr694/699) in THP-1 cell line; experiment: IFNa-stimulated JAK1/TYK2 pSTAT5 (Tyr694/699) inhibition cellular assay, AlphaLISA; format: cell-based; conditions: Homo sapiens; THP-1 cells, IFNa-stimulated, AlphaLISA (Assay B); read-out: Cellular_THP1_IFNa-pSTATS_TYK2
# Method in brief: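 The readout is AlphaLISA signal at 615 nm for phospho-STAT5 in THP-1 lysates after IFNa stimulation (added at 100 ng/mL, 30 min, 37 °C). Cells had compound for 1 h beforehand across eight 6-fold concentrations up to 10000 nM final. IC50s are 4PL fits with bottom and Hill slope constrained.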
# T1 sequence (P29597 589-875 limits assumed): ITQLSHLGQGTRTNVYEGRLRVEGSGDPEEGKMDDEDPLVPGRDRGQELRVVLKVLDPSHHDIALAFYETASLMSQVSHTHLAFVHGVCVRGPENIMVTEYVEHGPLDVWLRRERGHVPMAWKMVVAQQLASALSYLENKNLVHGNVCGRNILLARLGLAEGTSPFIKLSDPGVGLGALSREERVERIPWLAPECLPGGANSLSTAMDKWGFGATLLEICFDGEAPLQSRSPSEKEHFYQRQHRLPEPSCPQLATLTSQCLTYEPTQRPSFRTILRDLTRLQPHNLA
SMILES,Kd (TYK2 JH2) [nM],IC50 [1] [nM]
"[2H]C1([2H])Oc2ccc(C#Cc3cnc(NC)c4cnc(NC(=O)C5CC5)cc34)cc2O1 [Example 812, N-(5-((benzo[d][1,3]dioxol-5-yl-2,2-d2)ethynyl)-8-(methylamino)-2,7-naphthyridin-3-yl)cyclopropanecarboxamide]",≤ 100,≤ 500
"CNc1ncc(C#Cc2ccc3oc(C)cc3c2)c2cc(NC(=O)C3CC3)ncc12 [Example 813, N-(8-(methylamino)-5-((2-methylbenzofuran-5-yl)ethynyl)-2,7-naphthyridin-3-yl)cyclopropanecarboxamide]",≤ 100,≤ 500
"CNc1ncc(C#Cc2ccc(CN3C4CCC3COC4)cc2)c2cc(NC(=O)C3CC3)ncc12 [Example 815, N-(5-((4-(3-oxa-8-aza-bicyclo[3.2.1]octan-8-ylmethyl)phenyl)ethynyl)-8-(methylamino)-2,7-naphthyridin-3-yl)cyclopropanecarboxamide]",≤ 100,≤ 500
"CNc1ncc(C#Cc2ccc(CN3CC(OC)C3)cc2)c2cc(NC(=O)C3CC3)ncc12 [Example 816, N-(5-((4-((3-methoxyazetidin-1-yl)methyl)phenyl)ethynyl)-8-(methylamino)-2,7-naphthyridin-3-yl)cyclopropanecarboxamide]",≤ 100,≤ 500
"[2H]C([2H])([2H])n1nnc2ccc(C#Cc3cnc(NC)c4cnc(NC(=O)C5CC5)cc34)cc21 [Example 817, N-(5-((1-(methyl-d3)-1H-benzo[d][1,2,3]triazol-6-yl)ethynyl)-8-(methylamino)-2,7-naphthyridin-3-yl)cyclopropanecarboxamide]",≤ 100,≤ 500
"[2H]C([2H])([2H])Nc1ncc(C#Cc2ccc3nc(C(F)F)n(C)c3c2)c2cc(NC(=O)C3CC3)ncc12 [Example 818, N-(5-((2-(difluoromethyl)-1-methyl-1H-benzo[d]imidazol-6-yl)ethynyl)-8-((methyl-d3)amino)-2,7-naphthyridin-3-yl)cyclopropanecarboxamide]",≤ 100,≤ 500
"[2H]C([2H])([2H])Nc1ncc(C#Cc2ccc3nc(C(F)F)n(C)c3c2)c2cc(NC(=O)[C@H]3C[C@H]3C)ncc12 [Example 819, (1S,2R)—N-(5-((2-(difluoromethyl)-1-methyl-1H-benzo[d]imidazol-6-yl)ethynyl)-8-((methyl-d3)amino)-2,7-naphthyridin-3-yl)-2-methylcyclopropane-1-carboxamide]",≤ 100,≤ 500
"CNc1ncc(C#Cc2ccc(CN3CCOCC3)cc2)c2cc(NC(=O)C3CC3)ncc12 [Example 820, N-(8-(methylamino)-5-((4-(morpholinomethyl)phenyl)ethynyl)-2,7-naphthyridin-3-yl)cyclopropanecarboxamide]",≤ 100,≤ 500
"CNc1ncc(C#Cc2ccc(CN3CCOCC3)cc2)c2cc(NC(=O)[C@H]3C[C@H]3C)ncc12 [Example 821, (1S,2R)-2-methyl-N-(8-(methylamino)-5-((4-(morpholinomethyl)phenyl)ethynyl)-2,7-naphthyridin-3-yl)cyclopropane-1-carboxamide]",≤ 100,≤ 500
"CNc1ncc(Br)c2c1cnc1[nH]ccc12 [Example 824, 9-bromo-N-methyl-3H-pyrrolo[2,3-c][2,7]naphthyridin-6-amine]",100 to 1000,> 500
"CNc1ncc(-c2nc3ccccc3o2)c2c1cnc1[nH]ccc12 [Example 825, 9-(benzo[d]oxazol-2-yl)-N-methyl-3H-pyrrolo[2,3-c][2,7]naphthyridin-6-amine]",≤ 100,> 500
"CNc1ncc(CCc2cc(OC)cc(-c3ncnn3C)c2)c2cc(NC(=O)C3CC3)ncc12 [Example 826, N-(5-(3-methoxy-5-(1-methyl-1H-1,2,4-triazol-5-yl)phenethyl)-8-(methylamino)-2,7-naphthyridin-3-yl)cyclopropanecarboxamide]",≤ 100,> 500
"CNc1ncc(-c2nc(Cc3ncn(C)n3)co2)c2cc(NC(=O)C3CC3)ncc12 [Example 827, N-(5-(4-((1-methyl-1H-1,2,4-triazol-3-yl)methyl)oxazol-2-yl)-8-(methylamino)-2,7-naphthyridin-3-yl)cyclopropanecarboxamide]",≤ 100,> 500
"CNc1ncc(-c2nc(Cc3ncnn3C)co2)c2cc(NC(=O)C3CC3)ncc12 [Example 828, N-(5-(4-((1-methyl-1H-1,2,4-triazol-5-yl)methyl)oxazol-2-yl)-8-(methylamino)-2,7-naphthyridin-3-yl)cyclopropanecarboxamide]",≤ 100,> 500
"CNc1ncc(-c2ccn(CCc3ncn(C)n3)n2)c2cc(NC(=O)C3CC3)ncc12 [Example 835A, N-(5-(1-(2-(1-methyl-1H-1,2,4-triazol-3-yl)ethyl)-1H-pyrazol-3-yl)-8-(methylamino)-2,7-naphthyridin-3-yl)cyclopropanecarboxamide]",≤ 100,> 500
"CNc1ncc(-c2ccn(CCc3ncnn3C)n2)c2cc(NC(=O)C3CC3)ncc12 [Example 836, N-(5-(1-(2-(1-methyl-1H-1,2,4-triazol-5-yl)ethyl)-1H-pyrazol-3-yl)-8-(methylamino)-2,7-naphthyridin-3-yl)cyclopropanecarboxamide]",≤ 100,> 500
"CNc1ncc(CCc2ccc(S(C)(=O)=O)cc2)c2cc(NC(=O)C3CC3)ncc12 [Example 839, N-(8-(methylamino)-5-(4-(methylsulfonyl)phenethyl)-2,7-naphthyridin-3-yl)cyclopropanecarboxamide]",≤ 100,≤ 500
"CNc1ncc(C23CC(C2)C3)c2cc(NC(=O)C3CC3)ncc12 [Example 844, N-(5-(bicyclo[1.1.1]pentan-1-yl)-8-(methylamino)-2,7-naphthyridin-3-yl)cyclopropanecarboxamide]",≤ 100,> 500
"CNc1ncc(C23CC(c4ccncc4)(C2)C3)c2cc(NC(=O)C3CC3)ncc12 [Example 845, N-(8-(methylamino)-5-(3-(pyridin-4-yl)bicyclo[1.1.1]pentan-1-yl)-2,7-naphthyridin-3-yl)cyclopropanecarboxamide]",≤ 100,> 500

# The remaining lines, values ahead:
Kd (TYK2 JH2) [nM],IC50 [1] [nM],SMILES
≤ 100,≤ 500,"CNc1ncc(-c2nc(-c3nc[nH]n3)co2)c2cc(NC(=O)C3CC3)ncc12 [Example 829, N-(5-(4-(1H-1,2,4-triazol-3-yl)oxazol-2-yl)-8-(methylamino)-2,7-naphthyridin-3-yl)cyclopropanecarboxamide]"
≤ 100,≤ 500,"CNc1ncc(-c2nc(-c3ncn(C)n3)co2)c2cc(NC(=O)C3CC3)ncc12 [Example 830, N-(5-(4-(1-methyl-1H-1,2,4-triazol-3-yl)oxazol-2-yl)-8-(methylamino)-2,7-naphthyridin-3-yl)cyclopropanecarboxamide]"
≤ 100,> 500,"CNc1ncc(-c2nc(-c3ncnn3C)co2)c2cc(NC(=O)C3CC3)ncc12 [Example 831, N-(5-(4-(1-methyl-1H-1,2,4-triazol-5-yl)oxazol-2-yl)-8-(methylamino)-2,7-naphthyridin-3-yl)cyclopropanecarboxamide]"
≤ 100,> 500,"CNc1ncc(C2=CCCC(c3nc[nH]n3)C2)c2cc(NC(=O)C3CC3)ncc12 (stereo not shown) [Example 832, N-(5-(5-(1H-1,2,4-triazol-3-yl)cyclohex-1-en-1-yl)-8-(methylamino)-2,7-naphthyridin-3-yl)cyclopropanecarboxamide]"
≤ 100,> 500,"CNc1ncc(C2=CCC(c3nc[nH]n3)C2)c2cc(NC(=O)C3CC3)ncc12 (stereo not shown) [Example 833, N-(5-(4-(1H-1,2,4-triazol-3-yl)cyclopent-1-en-1-yl)-8-(methylamino)-2,7-naphthyridin-3-yl)cyclopropanecarboxamide]"
≤ 100,> 500,"CNc1ncc(C2=CCC(c3ncn(C)n3)C2)c2cc(NC(=O)C3CC3)ncc12 (stereo not shown) [Example 834, N-(5-(4-(1-methyl-1H-1,2,4-triazol-3-yl)cyclopent-1-en-1-yl)-8-(methylamino)-2,7-naphthyridin-3-yl)cyclopropanecarboxamide]"
≤ 100,> 500,"CNc1ncc(C2=CCC(c3ncnn3C)C2)c2cc(NC(=O)C3CC3)ncc12 (stereo not shown) [Example 835, N-(5-(4-(1-methyl-1H-1,2,4-triazol-5-yl)cyclopent-1-en-1-yl)-8-(methylamino)-2,7-naphthyridin-3-yl)cyclopropanecarboxamide]"
≤ 100,> 500,"CNc1ncc(-c2cn3cccnc3n2)c2cc(NC(=O)C3CC3)ncc12 [Example 841, N-(5-(imidazo[1,2-a]pyrimidin-2-yl)-8-(methylamino)-2,7-naphthyridin-3-yl)cyclopropanecarboxamide]"
≤ 100,> 500,"CNc1ncc(-c2nc3n(n2)CCCC3)c2cc(NC(=O)C3CC3)ncc12 [Example 842, N-(8-(methylamino)-5-(5,6,7,8-tetrahydro-[1,2,4]triazolo[1,5-a]pyridin-2-yl)-2,7-naphthyridin-3-yl)cyclopropanecarboxamide]"
≤ 100,≤ 500,"CNc1ncc(-c2nc3c(o2)CCCC3)c2cc(NC(=O)C3CC3)ncc12 [Example 843, N-(8-(methylamino)-5-(4,5,6,7-tetrahydrobenzo[d]oxazol-2-yl)-2,7-naphthyridin-3-yl)cyclopropanecarboxamide]"
